This assay deals with N2a cells. The assay is described as follows: In vitro cell-based neurite length (N2a) assay. The note with it: Mus musculus, neurite retraction induced by 5 uM LPA. The protocol:
In Vitro Cell-Based Neurite Length (N2a) Assay
N2a cells are maintained in DMEM/FBS at 37 C and 5% CO2. For the experiment the cells were plated on a poly-D-lysine coated 96-well tissue culture plate. After attachment, cell differentiation was induced for 2 days by addition of 10 uM retinoic acid. Cells were treated for 1 h with a dilution of compounds in 0.3% DMSO final concentration before neurite retraction was induced by 5 uM LPA. Cells were stained for tubulin and nuclei and images were acquired on an INCell 1000 workstation. Images were analyzed using the developer toolbox and neurite length was quantitated.

Here are results for one molecule from patent publication US20110150833A1, “BENZOPYRANS AND ANALOGS AS RHO KINASE INHIBITORS” (The Scripps Research Institute, priority 2007, published 2011).

In general, IC50 refers to the concentration needed to halve the response being measured. A lower IC50 goes with higher potency. In turn, `COc1ccc2c(c1)CC(C(=O)Nc1ccc(-c3cn[nH]c3)cc1)CO2` (stereo not shown) [Example 92, 6-methoxy-chroman-3-carboxylic acid [4-(1H-pyrazol-4-yl)-phenyl]-amide] registered a half-maximal inhibitory concentration (IC50) of 27 nM.
